Entries after “also recorded” stand apart in the source; their conditions may differ.
Assays:
[1] = tested on: Human promyelocytic leukemia (HL60) cells; assay: HL-60 differentiation (nitro blue tetrazolium reduction); format: cell-based; settings: FIG. 2; for EC50: HL60 cells, four days after treatment
Method: The study drugs were dissolved in ethanol and the concentrations determined using UV spectrophotometry. Serial dilutions were prepared so that a range of drug concentrations could be tested without changing the final concentration of ethanol (≦0.2%) present in the cell cultures.
Human promyelocytic leukemia (HL60) cells were grown in RPMI-1640 medium containing 10% fetal bovine serum. The cells were incubated at 37° C. in the presence of 5% CO2.
HL60 cells were plated at 1.2×10^5 cells/ml. Eighteen hours after plating, cells in duplicate were treated with drug. Four days later, the cells were harvested and a nitro blue tetrazolium reduction assay was performed (Collins et al., 1979; J. Exp. Med. 149:969-974). The percentage of differentiated cells was determined by counting a total of 200 cells and recording the number that contained intracellular black-blue formazan deposits. Verification of differentiation to monocytic cells was determined by measuring phagocytic activity (data not shown).

[2] = tested on: 24-hydroxylase (24Ohase) gene promoter in ROS 17/2.8 (bone) cells; assay: In vitro transcription assay (luciferase reporter); format: cell-based; settings: FIG. 3; for EC50: ROS 17/2.8 cells, 24Ohase promoter-luciferase, sixteen hours after dosing, read-out: EC50, transcriptional activity in bone cells
Method: Transcription activity was measured in ROS 17/2.8 (bone) cells that were stably transfected with a 24-hydroxylase (24Ohase) gene promoter upstream of a luciferase reporter gene (Arbour et al., 1998). Cells were given a range of doses. Sixteen hours after dosing the cells were harvested and luciferase activities were measured using a luminometer. RLU=relative luciferase units.

[3] = Bone calcium mobilization (serum calcium) in vitamin D-deficient rats; format: in vivo, Sprague-Dawley rats
Method: (§1) Male, weanling Sprague-Dawley rats were placed on Diet 11 (Suda et al, J. Nutr. 100:1049, 1970) (0.47% Ca)+vitamins AEK for one week followed by Diet 11 (0.02% Ca)+vitamins AEK for 3 weeks. The rats were then switched to the same diet containing 0.47% Ca for one week followed by two weeks on the same diet containing 0.02% Ca. Dose administration began during the last week on 0.02% calcium diet. Four consecutive ip doses were given approximately 24 hours apart. Twenty-four hours after the last dose, blood was collected from the severed neck and the concentration of serum calcium determined by atomic absorption spectrometry as a measure of bone calcium mobilization. The first 10 cm of the intestine was also collected for intestinal calcium transport analysis using the everted gut sac method.
(§2) Antagonism was tested by administering a combination of 1,25(OH)2D3 and the compound to the animal simultaneously.

[4] = molecular target: T1, full-length recombinant rat vitamin D receptor (Rattus norvegicus, UniProt P13053); assay: Vitamin D receptor binding, competition with [3H]-1,25(OH)2D3; settings: FIG. 1
T1 construct: Full-length recombinant rat receptor was expressed in E. coli BL21 (DE3) Codon Plus RIL cells; histidine tag (C); made in house; host or cells: E. coli BL21 (DE3) Codon Plus RIL
T1 sequence (P13053 1-423): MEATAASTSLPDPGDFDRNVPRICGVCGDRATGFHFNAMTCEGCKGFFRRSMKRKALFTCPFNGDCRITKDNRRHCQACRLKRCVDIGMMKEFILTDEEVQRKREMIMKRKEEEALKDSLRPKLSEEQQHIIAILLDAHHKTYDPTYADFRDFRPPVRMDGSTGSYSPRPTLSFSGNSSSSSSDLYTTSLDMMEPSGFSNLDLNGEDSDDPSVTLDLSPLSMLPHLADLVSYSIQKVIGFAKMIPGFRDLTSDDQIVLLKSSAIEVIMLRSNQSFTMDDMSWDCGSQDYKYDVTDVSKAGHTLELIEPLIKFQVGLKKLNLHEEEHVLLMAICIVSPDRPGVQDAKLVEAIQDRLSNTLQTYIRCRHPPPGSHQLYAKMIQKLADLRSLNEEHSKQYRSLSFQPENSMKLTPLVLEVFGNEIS
Method: Full-length recombinant rat receptor was expressed in E. coli BL21 (DE3) Codon Plus RIL cells and purified to homogeneity using two different column chromatography systems. The first system was a nickel affinity resin that utilizes the C-terminal histidine tag on this protein. The protein that was eluted from this resin was further purified using ion exchange chromatography (S-Sepharose Fast Flow). Aliquots of the purified protein were quick frozen in liquid nitrogen and stored at −80° C. until use. For use in binding assays, the protein was diluted in TEDK50 (50 mM Tris, 1.5 mM EDTA, pH7.4, 5 mM DTT, 150 mM KCl) with 0.1% Chaps detergent. The receptor protein and ligand concentration was optimized such that no more than 20% of the added radiolabeled ligand was bound to the receptor.
Radiolabeled and unlabeled ligands were added to 100 mcl of the diluted protein at a final ethanol concentration of ≦10%, mixed and incubated overnight on ice to reach binding equilibrium. The following day, 100 mcl of hydroxylapatite slurry (50%) was added to each tube and mixed at 10-minute intervals for 30 minutes. The hydroxylapaptite was collected by centrifugation and then washed three times with Tris-EDTA buffer (50 mM Tris, 1.5 mM EDTA, pH 7.4) containing 0.5% Titron X-100. […] Total binding was determined from the tubes containing only radiolabeled ligand.

[5] = Intestinal calcium transport, everted gut sac method, in vitamin D-deficient rats; format: in vivo, Sprague-Dawley rats; settings: VIT-III 260, 2340 or 7020 pmol/day versus 1,25(OH)2D3 260 pmol/day, FIG. 5
Method: as §1, §2

binding to the receptor as compared to 1,25-(OH)2D3 ([4]; full length recombinant rat VDR)	Ki ([4]; full-length recombinant rat VDR)	EC50 ([1]; Homo sapiens, HL-60, 96 h)	SMILES	EC50 [1]	EC50 [2]	serum calcium levels ([3]; native hormone at the dosage tested, FIG. 4)	HL-60 cell differentiation potency as compared to 1,25(OH)2D3 [1]	transcriptional activity in bone cells as compared to 1α,25-dihydroxyvitamin D3 [2]	mobilization of bone calcium (serum calcium) ([3]; 260 pmol/day for 4 consecutive days)	mobilization of bone calcium (serum calcium) ([3]; 2340 pmol/day and then 7020 pmol/day)	intestinal calcium transport activity as compared to 1,25(OH)2D3 [5]
			C=C1/C(=C\C=C2/CCC[C@]3(C)[C@@H]([C@H](C)CCCC(C)(C)O)CC[C@@H]23)C[C@@H](O)C[C@@H]1O [1α,25-dihydroxyvitamin D3, reference compound]	1.3 nM	0.29 nM	increased serum calcium levels					
bound equally well	0.05 nM	0.37 nM	C=C1[C@H](O)CC(=C/C=C2\CCC[C@]3(C)/C(=C(/C)CCCC(C)(C)O)CC[C@@H]23)C[C@H]1O [VIT-III, 17(Z)-1α,25-dihydroxy-17(20)-dehydro-2-methylene-19-norvitamin D3]		0.0044 nM		as potent as 1,25(OH)2D3	about the same transcriptional activity	significant mobilization of bone calcium	progressively increasing serum calcium levels well above the effects seen with 1,25(OH)2D3	significant increase in intestinal calcium transport activity; also recorded: relatively high activity

— US8232263B2, “17,20(Z)-dehydro vitamin D analogs and their uses” (Wisconsin Alumni Research Foundation, priority 2004, dated 2012)
